Test results as given in patent US6927234B2, “Xanthone derivatives, method of production thereof, and pharmaceutical composition containing the same” (Kuboyama Bio Ken Inc., priority 2003, dated 2005).
Read-outs that look alike come from different tables or passages of the source. Marks after values point to notes of the source that are not given here.

Experiments:
Sarcoma 180 [1] = test: Sarcoma 180 assay, oral gavage for five days, sacrifice on Day 10 (Example 4); type: in vivo, Swiss-Webster mice; conditions: for % Tumor Inhibition: sacrificed Day 10, female mice
Protocol: (§1) The compound obtained in Example 1 was dissolved in ethyl alcohol at 10 mg/ml. Dilutions of this stock solution were made to 100, 10 and 1 mcg per kilo body weight of the mice. The Sarcoma 180 assay was carried out as described below.
The tumor stock was a Sarcoma 180 which was started in the laboratory from an American Type Culture Collection. This stock culture has been passed at weekly intervals as an ascites in non-treated Swiss-Webster mice.
(§2) The current studies were all carried out with Swiss-Webster mice obtained from Animal Technologics Ltd., Kent, Wash. To prepare the inoculum, the ascites fluid from a mouse with a 7-10 day ascites is aspirated using a sterile technique. Once a cell count is established, the tumor cells are diluted with normal saline or phosphate buffered saline to obtain a final concentration of 1 to 2×10^6 cells per mm^3. This is the tumor suspension that is then injected into the mice. The final dilution is plated on trypticase soy agar to determine if it is free of contamination.
(§3) One tenth (0.1 ml) of the above suspension is inoculated into the left hind leg muscle (hamstring muscle mass) of each mouse. The inoculated mice are placed into one large cage and then randomly segregated into groups of five mice. The mice are housed in shoe box cages on wood shavings with free access to water and laboratory chow. The mice are weighed on the day of inoculation, on day 7, day 10, and at time of sacrifice.
Treatment of the mice was initiated the day after transplant and then continued for five days.
(§4) At the end of the observation period, 10 days, the mice are sacrificed either by cervical dislocation or ether anesthesia. The skin over the left hind leg is removed to expose the tumor and the leg and tumor are removed at the hip joint. Any residual skin is removed and the legs with tumors are weighed individually. Ten normal legs (right legs) are prepared in a similar manner and weighed. The mean value of the normal leg is subtracted from the weight of the leg with the tumor to give an estimate of the actual tumor weight.

Sarcoma 180 [2] = test: Sarcoma 180 assay, oral dosing, 12-day treatment period (Example 5); type: in vivo, Swiss-Webster mice; conditions: 12 days treatment; for % Tumor Inhibition / Body wt. G (avg.): oral gavage
Protocol: as §1
The tumor stock was a Sarcoma 180, which was started in the laboratory from an American Type Culture Collection. This stock culture has been passed at weekly intervals as an ascites in non-treated Swiss-Webster mice.
as §2, with “7-12” for “7-10”, “sterile technique. The tumor cells are checked for viability using the trypan-blue staining” for “sterile”
as §3, with “12,” for “10,”
Treatment of the mice was initiated the day after transplant. The treatment period was 12 days.
as §4, with “period,” for “period, 10 days,”, “sacrificed” for “sacrificed either”, “by” for “by cervical dislocation or”, “weight. [formula]” for “weight.”

[3] = test system: adjuvant-induced arthritis; type: in vivo, Sprague-Dawley rats; conditions: gavage once per day for 7 days; for Rat paw wt.: five rats per group
Protocol: Adjuvant-induced arthritis responds to both steroids and non-steroids. The degree of inflammation is assessed by measuring differences in foot weight and/or the foot volume.
Rats weighing between 150-200 g were purchased from ATL, in Kent Wash. They were male Sprague-Dawley rats. The animals were kept individually in stainless steel cages with free access to water and feed (Harlan Teklan Rodent Diet). The light cycle was maintained at 12 hours light and 12 hours dark. The temperature was maintained at 22° C.±3° C. with a relative humidity of 40 to 70%.
[…] The test compound and hydrocortisone were given by gavage.
The test materials were delivered orally (by gavage) once per day for 7 days.
Male Sprague-Dawley rats (150-200 g) were sensitized by injecting Fruend's complete adjuvant (0.5% suspension of killed mycobacterium tuberculosis (H37RA, Difco, in mineral oil)). A 0.1 ml aliquot was administered intradermally at a plantar site on the right hind leg of each rat.
The test materials were given orally (by gavage) to each of 5 rats per treatment group once per day for 7 days. Administration of the test materials was initiated on the day of sensitization.
The left hind paw was measured just before sensitization an again on Day 7. The plantar edema inhibitory rate and the body weight gain were determined by comparison with the non-sensitized rat groups.
The paw weights for each rat group were averaged. Anti-inflammatory activity was determined by comparing paw weights calculated as follows: [formula]

Sarcoma 180 [4] = test: Sarcoma 180 assay, single intraperitoneal dose (Example 7); type: in vivo, Swiss-Webster mice
Source text: [table] [table] The tumor stock was a Sarcoma 180 which was started in the laboratory from an American Type Culture Collection. This stock culture has been passed at weekly intervals as an ascites in non-treated Swiss-Webster mice. The current studies were all carried out with Swiss-Webster mice obtained from Animal Technologics Ltd., Kent, Wash. To prepare the inoculum, the ascites fluid from a mouse with a 7-10 day ascites is aspirated using a sterile technique. […] This was the tumor suspension that was then injected into the mice. The final dilution was plated on trypticase soy agar to determine if it was free of contamination. One tenth (0.1 ml) of the above suspension was inoculated into the left hind leg muscle (hamstring muscle mass) of each mouse. The inoculated mice were placed into one large cage and then randomly segregated into groups of five mice. The mice were housed in shoe box cages on wood shavings with free access to water and laboratory chow. The mice were weighed on the day of inoculation, on day 7, day 10, and at time of sacrifice. Treatment of the mice was initiated the day after transplant. At the end of the observation period, the mice were sacrificed by ether anesthesia. The skin over the left hind leg was removed to expose the tumor and the leg and tumor were removed at the hip joint. Any residual skin was removed and the legs with tumors were weighed individually. Ten normal legs (right legs) were prepared in a similar manner and weighed. The mean value of the normal leg was subtracted from the weight of the leg with the tumor to give an estimate of the actual tumor weight: […]

[5] = 1 mg/kg, single dose intraperitoneally
[6] = 10 mg/kg, single dose intraperitoneally
[7] = 100 mg/kg, single dose intraperitoneally

O=C(O)Cc1c2cc[nH]c2cc2c(=O)c3ccccc3oc12 [Compound of Example 1]
% Tumor Inhibition (Sarcoma 180 [1]; 1 mcg/kg): 43% | % Tumor Inhibition (Sarcoma 180 [1]; 10 mcg/kg): 100% | % Tumor Inhibition (Sarcoma 180 [1]; 100 mcg/kg): 100% | toxicity as indicated by the body weights (Sarcoma 180 [1]; any dose (1, 10, 100 mcg/kg)): No toxicity | toxicity from final body weights (Sarcoma 180 [2]; 1 and 10 mcg/kg, oral): not toxic | visible tumor (Sarcoma 180 [2]; 1 and 10 mcg/kg, oral): no visible tumor | % Tumor Inhibition (Sarcoma 180 [2]; 1 mcg/kg): 98.5* % | Body wt. G (avg.) (Sarcoma 180 [2]; 1 mcg/kg): 29.2 G | % Tumor Inhibition (Sarcoma 180 [2]; 10 mcg/kg): 100* % | Body wt. G (avg.) (Sarcoma 180 [2]; 10 mcg/kg): 28.7 G | % Inhibition (rat paw inflammation) ([3]; 1 mcg/kg body wt.): 95.2% | Rat paw wt. ([3]; 1 mcg/kg body wt.): 0.324 g

O=c1c2ccccc2oc2ccccc12 [Compound of Example 3, Xanthone]
% Inhibition (Sarcoma 180 [4]; [5]): 80% | Net Tumor wt. (Sarcoma 180 [4]; [5]): 0.3 g | % Inhibition (Sarcoma 180 [4]; [6]): 100% | Net Tumor wt. (Sarcoma 180 [4]; [6]): 0 g | % Inhibition (Sarcoma 180 [4]; [7]): 100% | Net Tumor wt. (Sarcoma 180 [4]; [7]): 0 g | evidence of tumor (Sarcoma 180 [4]; 10 and 100 mg/kg body weight, single dose intraperitoneally): no evidence of tumor | Body weight (Sarcoma 180 [4]; Day 1, 1 mg/kg single ip): 24.2 g | Body weight (Sarcoma 180 [4]; Day 1, 10 mg/kg single ip): 23.8 g | Body weight (Sarcoma 180 [4]; Day 1, 100 mg/kg single ip): 23.4 g | Body weight (Sarcoma 180 [4]; Day 7, 1 mg/kg single ip): 26 g | Body weight (Sarcoma 180 [4]; Day 7, 10 mg/kg single ip): 26.1 g | Body weight (Sarcoma 180 [4]; Day 7, 100 mg/kg single ip): 26.2 g | Body weight (Sarcoma 180 [4]; Day 10, 1 mg/kg single ip): 26.2 g | Body weight (Sarcoma 180 [4]; Day 10, 10 mg/kg single ip): 26.4 g | Body weight (Sarcoma 180 [4]; Day 10, 100 mg/kg single ip): 26.5 g

C[C@]12CCC(=O)C=C1CC[C@@H]1[C@@H]2[C@@H](O)C[C@@]2(C)[C@H]1CC[C@]2(O)C(=O)CO [hydrocortisone]
% Inhibition (rat paw inflammation) ([3]; 10 mg/kg body wt.): 42% | Rat paw wt. ([3]; 10 mg/kg body wt.): 0.98 g
